PubChem BioAssay (NCI)
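Five concentrations, 48 hours, 96-well plates. GI50 = concentration required for 50% inhibition of growth. The concentration for full growth arrest is given as TGI.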

Key:
Test in all cases: inhibition of tumour cell growth, NCI panel, 48 h
SK-MEL-28 melanoma = tested on: SK-MEL-28 melanoma
EKVX NSCLC = tested on: EKVX NSCLC
KM20L2 colon = tested on: KM20L2 colon
U251 CNS = tested on: U251 CNS
UO-31 renal = tested on: UO-31 renal
CAKI-1 renal = tested on: CAKI-1 renal
OVCAR-4 ovarian = tested on: OVCAR-4 ovarian
SNB-78 CNS = tested on: SNB-78 CNS
RPMI-8226 leukemia = tested on: RPMI-8226 leukemia
OVCAR-5 ovarian = tested on: OVCAR-5 ovarian
UACC-62 melanoma = tested on: UACC-62 melanoma
M14 melanoma = tested on: M14 melanoma
NCI-H226 lung = tested on: NCI-H226 lung
OVCAR-3 ovarian = tested on: OVCAR-3 ovarian
MALME-3M melanoma = tested on: MALME-3M melanoma
SNB-75 CNS = tested on: SNB-75 CNS
HOP-62 NSCLC = tested on: HOP-62 NSCLC
HOP-92 NSCLC = tested on: HOP-92 NSCLC
DLD-1 colon = tested on: DLD-1 colon
HL-60(TB) leukemia = tested on: HL-60(TB) leukemia
SN12C renal = tested on: SN12C renal
SW-620 colon = tested on: SW-620 colon
HCC-2998 colon = tested on: HCC-2998 colon
DMS 273 small cell lung = tested on: DMS 273 small cell lung
MOLT-4 leukemia = tested on: MOLT-4 leukemia
A498 renal = tested on: A498 renal
NCI-H460 lung = tested on: NCI-H460 lung
LOX IMVI melanoma = tested on: LOX IMVI melanoma

[O-][Cl+3]([O-])([O-])[O-].[O]=[Ru]=[O].c1ccc(-c2ccccn2)nc1.c1ccc(-c2ccccn2)nc1
TGI (SK-MEL-28 melanoma): > 100 µM | GI50 (EKVX NSCLC): > 100 µM | TGI (EKVX NSCLC): > 100 µM | GI50 (KM20L2 colon): > 100 µM | TGI (KM20L2 colon): > 100 µM | GI50 (U251 CNS): > 100 µM | TGI (U251 CNS): > 100 µM | GI50 (UO-31 renal): > 100 µM | TGI (UO-31 renal): > 100 µM | GI50 (CAKI-1 renal): > 100 µM | TGI (CAKI-1 renal): > 100 µM | GI50 (OVCAR-4 ovarian): > 100 µM | TGI (OVCAR-4 ovarian): > 100 µM | GI50 (SNB-78 CNS): > 100 µM | TGI (SNB-78 CNS): > 100 µM | GI50 (RPMI-8226 leukemia): 29.7 µM | TGI (RPMI-8226 leukemia): > 100 µM | GI50 (OVCAR-5 ovarian): > 100 µM | TGI (OVCAR-5 ovarian): > 100 µM | GI50 (UACC-62 melanoma): > 100 µM | TGI (UACC-62 melanoma): > 100 µM | GI50 (M14 melanoma): > 100 µM | TGI (M14 melanoma): > 100 µM | GI50 (NCI-H226 lung): 56.7 µM | TGI (NCI-H226 lung): > 100 µM | GI50 (OVCAR-3 ovarian): > 100 µM | TGI (OVCAR-3 ovarian): > 100 µM | GI50 (MALME-3M melanoma): > 100 µM | TGI (MALME-3M melanoma): > 100 µM | GI50 (SNB-75 CNS): 40.9 µM | TGI (SNB-75 CNS): > 100 µM | GI50 (HOP-62 NSCLC): > 100 µM | TGI (HOP-62 NSCLC): > 100 µM | GI50 (HOP-92 NSCLC): > 100 µM | TGI (HOP-92 NSCLC): > 100 µM | GI50 (DLD-1 colon): > 100 µM | TGI (DLD-1 colon): > 100 µM | GI50 (HL-60(TB) leukemia): > 100 µM | TGI (HL-60(TB) leukemia): > 100 µM | GI50 (SN12C renal): 50.9 µM | TGI (SN12C renal): > 100 µM | GI50 (SW-620 colon): > 100 µM | TGI (SW-620 colon): > 100 µM | GI50 (HCC-2998 colon): 88.6 µM | TGI (HCC-2998 colon): > 100 µM | GI50 (DMS 273 small cell lung): 22.4 µM | TGI (DMS 273 small cell lung): > 100 µM | GI50 (MOLT-4 leukemia): > 100 µM | TGI (MOLT-4 leukemia): > 100 µM | GI50 (A498 renal): > 100 µM | TGI (A498 renal): > 100 µM | GI50 (NCI-H460 lung): 56.1 µM | TGI (NCI-H460 lung): > 100 µM | GI50 (LOX IMVI melanoma): 56.8 µM | TGI (LOX IMVI melanoma): > 100 µM
